Measured values reported in patent US6815464B2, “Carbamate compounds for use in the treatment of pain” (Ortho-McNeil Pharmaceutical, Inc., priority 2001, dated 2004).
Marks after values point to notes of the source that are not given here.

Test system: sciatic nerve loose ligation in rats
Experiment: Bennett model (Chronic Constrictive Injury), thermal stimulation, paw-withdrawal latency
Type: in vivo
Conditions: rat; for Antihyperalgesic Effectiveness (% Effective): vs vehicle control; for anti-hyperalgesic effect against a thermal stimulation challenge: p.o., summary statement in words
Description: Bennett Model (Chronic Constrictive Injury)
The Bennett model consists of sciatic nerve loose ligation in rats (Bennett G J and Xie Y K, A peripheral mononeuropathy in rat that produces disorders of pain sensation like those seen in man, Pain, 1988, 33, 87-107). Although the pharmacological profile of the spontaneous pain, protective posture and allodynia (minor) is similar to that of clinical neuropathic pain, the loose chronic ligature of sciatic nerve in the Bennett model causes greater thermal hyperalgesia than mechanical allodynia due to its inflammatory mechanism. The loose ligation causes the constriction/swelling followed by inflammation at the ligation site, a condition most commonly associated with various types of pain. The behavioral response to the ligature is one of hyperalgesia. Thus, anti-hyperalgesia reduces chronic signs of pain hypersensitivity. Therefore, the Bennett model is used to evaluate antinociceptive pain (Cui J G, Possible role of inflammatory mediators in tactile hypersensitivity in rat models of mononeuropathy, Pain, 2000, 88 (3), 239-248; Lovell J A, Changes in Spinal Serotonin Turnover Mediate Age-Related Differences in the Behavioral Manifestations of Peripheral Nerve Injury, Pharmacol. Biochem. Behav., 2000, 66 (4), 873-878; Yasuda T, The novel analgesic compound OT-7100[5-n-butyl-7-(3,4,5-trimethoxybenzoylamino)pyrazolo[1,5a]pyrimidine] attenuates mechanical nociceptive responses in animal models of acute and peripheral neuropathic hyperalgesia, J. Pharmacol., 1999, 79 (1), 65-73; Toda K, Antinociceptive effects of neurotropin in a rat model of painful peripheral mononeuropathy, Life Sci., 1998, 62 (10), 913-921; Munglani R, Neuropeptide changes persist in spinal cord despite resolving hyperalgesia in a rat model of mononeuropathy, Brain Res., 1996, 743, 1 (2), 102-108).
[…] The anti-hyperalgesia effect was assessed at 30, 60, and 90 minutes after the oral administration.
Rats (180-220 g body weight) were anesthetized (sodium pentobarbital, 40 mg/kg, ip) and an incision was made at the mid-thigh level to expose the common left sciatic nerve. Four ligatures spaced 1 mm apart were loosely tied around the sciatic nerve. The wound was then sutured. The rats received an i.m. injection of 50,000 IU Penicillin and were allowed to recover after this procedure. At least one week after the surgery, when the chronic state was fully established, rats were consecutively submitted to thermal stimulation of both the non-lesioned and the lesioned hind-paws. The apparatus (UgoBasil, Reference: 7371) consists of 6 individual Plexiglas boxes (17×13×13 cm) placed upon an elevated glass floor. The rat was placed in the box and allowed to habituate for 10 minutes. A mobile infrared radiant source (setting 20) was then focused under the non-lesioned and lesioned hind-paws and the paw-withdrawal latencies in seconds were automatically recorded. The test was performed in a blinded fashion. The increased latency in treated animals as compared to control animals (those receiving only vehicle) was expressed as % of effectiveness of the drug. Data were analyzed by comparing the treated lesion group with controls using unpaired Student's t-test.

[1] = 10 mg/kg p.o., 60 min after administration
[2] = 10 mg/kg p.o., 90 min after administration
[3] = 30 mg/kg p.o., 30 min after administration
[4] = 30 mg/kg p.o., 60 min after administration
[5] = 30 mg/kg p.o., 90 min after administration
[6] = 300 mg/kg p.o., 30 min after administration
[7] = 300 mg/kg p.o., 60 min after administration
[8] = 300 mg/kg p.o., 90 min after administration

Row | Compound | Antihyperalgesic Effectiveness (% Effective) [1] | Antihyperalgesic Effectiveness (% Effective) [2] | Antihyperalgesic Effectiveness (% Effective) [3] | Antihyperalgesic Effectiveness (% Effective) [4] | Antihyperalgesic Effectiveness (% Effective) [5] | Antihyperalgesic Effectiveness (% Effective) [6] | Antihyperalgesic Effectiveness (% Effective) [7] | Antihyperalgesic Effectiveness (% Effective) [8] | anti-hyperalgesic effect against a thermal stimulation challenge
1 | NC(=O)OC[C@H](OC(N)=O)c1ccccc1Cl [Formula (IIb)] | 121% | 50% | 61% | 318** % | 182** % | 48% | 198** % | 69% | anti-hyperalgesic effect
2 | NC(=O)OC[C@@H](O)c1ccccc1Cl [Formula (Ib)] | 79% | 53% | 59% | 109% | 107% | 43% | 314** % | 151% | anti-hyperalgesic effect
